Several values for one entry are separate records, joined by “and”; a condition that tells them apart may be missing. Equal values may be shown once. Read-outs that look alike come from different tables or passages of the source.
Experiments:
Assay type in all cases: binding
IF2-bound 30S IC = biological target: T1, IF2-bound 30S IC (Escherichia coli, UniProt P0A705); test: 30S IC formation by MST, guanosine nucleotide titration; conditions: for MST Average / MST Replicates (a.u.): Fig 2B (GDP/ppGpp series);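 as to MST Average: lower thermophoresis signal means Bpy-tRNAi dissociation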;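 as to MST Replicates (a.u.): lower thermophoresis signal means Bpy-tRNAi dissociation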
T1 construct: 6xHis (N); made in house
T1 sequence (P0A705 whole entry, looked up): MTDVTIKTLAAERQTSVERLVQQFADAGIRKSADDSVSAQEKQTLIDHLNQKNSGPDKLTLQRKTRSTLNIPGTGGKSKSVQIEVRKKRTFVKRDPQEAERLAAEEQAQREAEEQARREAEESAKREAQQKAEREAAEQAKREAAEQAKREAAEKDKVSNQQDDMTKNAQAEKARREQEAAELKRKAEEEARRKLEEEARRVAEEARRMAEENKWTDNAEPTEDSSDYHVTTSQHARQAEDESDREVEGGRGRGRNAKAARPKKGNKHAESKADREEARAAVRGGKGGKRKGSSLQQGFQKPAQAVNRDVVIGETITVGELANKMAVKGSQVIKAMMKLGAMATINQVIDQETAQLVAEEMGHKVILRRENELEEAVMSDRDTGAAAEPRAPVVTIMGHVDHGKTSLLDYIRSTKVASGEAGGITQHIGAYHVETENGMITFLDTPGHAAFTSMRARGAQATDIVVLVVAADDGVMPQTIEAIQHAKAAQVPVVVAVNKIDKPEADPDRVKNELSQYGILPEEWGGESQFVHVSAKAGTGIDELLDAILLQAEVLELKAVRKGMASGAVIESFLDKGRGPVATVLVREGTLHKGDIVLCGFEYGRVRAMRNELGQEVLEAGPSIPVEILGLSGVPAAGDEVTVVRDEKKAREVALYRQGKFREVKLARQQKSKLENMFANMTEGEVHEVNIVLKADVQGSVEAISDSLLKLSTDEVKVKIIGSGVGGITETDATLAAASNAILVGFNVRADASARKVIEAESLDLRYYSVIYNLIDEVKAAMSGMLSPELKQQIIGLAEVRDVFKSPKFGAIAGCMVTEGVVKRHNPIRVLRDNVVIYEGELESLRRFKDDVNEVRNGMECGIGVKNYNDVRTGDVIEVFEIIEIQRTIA
In short: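 Binding of fluorescently labelled initiator tRNA (Bpy-tRNAi) to E. coli 30S subunits followed by microscale thermophoresis, titrating guanosine nucleotides at constant 1 μM IF2. Dissociation constants from quadratic nonlinear fits of Ff/Fi versus ligand concentration; three measurements, mean ± SD.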

IF2 = biological target: T2, IF2 (Escherichia coli, UniProt P0A705); test: IF2-Bpy-tRNAi-GNP ternary complex formation by MST; conditions: S2A Fig
T2 construct: 6xHis (N); made in house
T2 sequence (P0A705 whole entry): as the sequence (P0A705 whole entry, looked up) above
Method: Supplementary file pbio.3000593.s002.pdf: S2 Fig IF2-Bpy-tRNAi complex formation as a function of guanosine nucleotides. (A) IF2 concentration dependencies for Bpy-tRNAi binding in the presence of 0.5 mM of the indicated guanosine nucleotides to build IF2-tRNA-GNP ternary complexes (TCs). […] Three to five measurements were performed; mean and standard deviation are plotted (S1 Data). […] (PDF) Click here for additional data file.

30S IC = 30S IC (Escherichia coli, UniProt P0A705); test: ppGpp tolerance of 30S IC formation by MST; set-up: 6xHis (N); made in house
Sequence of 30S IC (P0A705 whole entry, looked up): as above
Method: Fig 7 SETIs and ppGpp tolerance. (A) Translation initiation efficiency as a function of mRNAs along five steps of transition from NS to S conditions. […] Symbols and error bars represent averages of three replicates and standard deviations, respectively (S1 Data). (C) Comparison of ppGpp tolerance as calculated from the ratio of translation initiation efficiencies found in the presence of 0.2 mM ppGpp over the efficiencies obtained in the absence of the alarmone (S1 Data). […] All 30S IC components are as in Fig 1. Dashed line indicates the average tolerance of all mRNAs lacking the SETI element.

In the case of `Nc1nc2c(ncn2[C@@H]2O[C@H](COP(=O)(O)OP(=O)(O)O)[C@@H](OP(=O)(O)OP(=O)(O)O)[C@H]2O)c(=O)[nH]1` [ppGpp], the “MST Average” value (IF2-bound 30S IC; nucleotide 0.13 µM) is reported as 936.81 a.u, the “MST Replicates (a.u.)” value (IF2-bound 30S IC; nucleotide 0.13 µM, constant IF2 (1 μM)) is reported as 935.73 a.u. and 937.32 a.u. and 936.20 a.u. and 937.97 a.u and the “MST Average” value (IF2-bound 30S IC; nucleotide 0.25 µM) is reported as 935.17 a.u. For the same compound, the “MST Replicates (a.u.)” value (IF2-bound 30S IC; nucleotide 0.25 µM) was 933.09 a.u. and 935.35 a.u. and 935.04 a.u. and 937.21 a.u, the “MST Average” value (IF2-bound 30S IC; nucleotide 0.50 µM) was 935.42 a.u and the “MST Replicates (a.u.)” value (IF2-bound 30S IC; nucleotide 0.50 µM) was 934.19 a.u. and 935.54 a.u. and 934.92 a.u. and 937.01 a.u. For the same compound, the “MST Average” value (IF2-bound 30S IC; nucleotide 1.00 µM) was 934.04 a.u, the “MST Replicates (a.u.)” value (IF2-bound 30S IC; nucleotide 1.00 µM) was 932.40 a.u. and 934.21 a.u. and 934.12 a.u. and 935.41 a.u and the “MST Average” value (IF2-bound 30S IC; nucleotide 2.00 µM) was 933.55 a.u. The “MST Replicates (a.u.)” value (IF2-bound 30S IC; nucleotide 2.00 µM) was 931.48 a.u. and 933.31 a.u. and 934.38 a.u. and 935.04 a.u, the “MST Average” value (IF2-bound 30S IC; nucleotide 4.00 µM) was 931.78 a.u and the “MST Replicates (a.u.)” value (IF2-bound 30S IC; nucleotide 4.00 µM) was 930.04 a.u. and 931.00 a.u. and 932.61 a.u. and 933.45 a.u. The “MST Average” value (IF2-bound 30S IC; nucleotide 8.00 µM) was 932.68 a.u, the “MST Replicates (a.u.)” value (IF2-bound 30S IC; nucleotide 8.00 µM) was 930.98 a.u. and 932.59 a.u. and 933.05 a.u. and 934.12 a.u and the “MST Average” value (IF2-bound 30S IC; nucleotide 16.00 µM) was 932.30 a.u. The “MST Replicates (a.u.)” value (IF2-bound 30S IC; nucleotide 16.00 µM) was 931.44 a.u. and 932.29 a.u. and 931.81 a.u. and 933.65 a.u, the “MST Average” value (IF2-bound 30S IC; nucleotide 31.00 µM) was 930.81 a.u and the “MST Replicates (a.u.)” value (IF2-bound 30S IC; nucleotide 31.00 µM) was 928.79 a.u. and 930.49 a.u. and 930.93 a.u. and 933.04 a.u. The “MST Average” value (IF2-bound 30S IC; nucleotide 62.00 µM) was 932.86 a.u, the “MST Replicates (a.u.)” value (IF2-bound 30S IC; nucleotide 62.00 µM) was 931.23 a.u. and 932.53 a.u. and 932.57 a.u. and 935.11 a.u and the “MST Average” value (IF2-bound 30S IC; nucleotide 125.00 µM) was 932.91 a.u. For the same compound, the “MST Replicates (a.u.)” value (IF2-bound 30S IC; nucleotide 125.00 µM) was 931.17 a.u. and 932.39 a.u. and 933.25 a.u. and 934.84 a.u, the “promotion of Bpy-tRNAi binding (thermophoresis) in guanosine nucleotide titration” value (IF2-bound 30S IC; constant IF2 (1 μM)) was “failed to promote Bpy-tRNAi binding at any concentration” and the “MST Average” value (IF2; IF2 0.08 µM) was 943.56 a.u. For the same compound, the “MST Replicates” value (IF2; IF2 0.08 µM) was 950.05 a.u. and 945.75 a.u. and 934.87 a.u, the “MST Average” value (IF2; IF2 0.16 µM) was 943.40 a.u and the “MST Replicates” value (IF2; IF2 0.16 µM) was 949.30 a.u. and 935.29 a.u. and 945.62 a.u. For the same compound, the “MST Average” value (IF2; IF2 0.31 µM) was 945.38 a.u, the “MST Replicates” value (IF2; IF2 0.31 µM) was 948.56 a.u. and 936.80 a.u. and 950.79 a.u and the “MST Average” value (IF2; IF2 0.63 µM) was 945.13 a.u. For the same compound, the “MST Replicates” value (IF2; IF2 0.63 µM) was 936.31 a.u. and 947.81 a.u. and 951.27 a.u, the “MST Average” value (IF2; IF2 1.25 µM) was 946.96 a.u and the “MST Replicates” value (IF2; IF2 1.25 µM) was 952.23 a.u. and 948.54 a.u. and 940.12 a.u. For the same compound, the “MST Average” value (IF2; IF2 2.50 µM) was 951.73 a.u, the “MST Replicates” value (IF2; IF2 2.50 µM) was 945.20 a.u. and 956.43 a.u. and 953.55 a.u and the “MST Average” value (IF2; IF2 5.00 µM) was 958.05 a.u. The “MST Replicates” value (IF2; IF2 5.00 µM) was 952.00 a.u. and 959.98 a.u. and 962.17 a.u, the “MST Average” value (IF2; IF2 10.00 µM) was 963.39 a.u and the “MST Replicates” value (IF2; IF2 10.00 µM) was 958.44 a.u. and 964.79 a.u. and 966.94 a.u. The “MST Average” value (IF2; IF2 20.00 µM) was 974.27 a.u, the “MST Replicates” value (IF2; IF2 20.00 µM) was 972.33 a.u. and 976.56 a.u. and 973.92 a.u and the “MST Average” value (IF2; IF2 40.00 µM) was 980.83 a.u. The “MST Replicates” value (IF2; IF2 40.00 µM) was 982.65 a.u. and 981.22 a.u. and 978.62 a.u, the Ki (30S IC; mRNA mInfA, read-out: 30S IC Ki (μM), replicates) was 0.598 µM and 0.576 µM and 0.587 µM and the Ki (30S IC; mRNA mInfA, read-out: 30S IC Ki Average) was 0.587 µM. The Ki (30S IC; mRNA mTufA, read-out: 30S IC Ki (μM), replicates) was 2.19 µM and 2.21 µM and 2.22 µM and the Ki (30S IC; mRNA mTufA, read-out: 30S IC Ki Average) was 2.21 µM.
